In publication PMC8799717, “Pharmacological targeting PIKfyve and tubulin as an effective treatment strategy for double-hit lymphoma” (Cell Death Discovery, 2022):

Assays:
Assay in all cases: biochemical
Parameters in all cases: KINOMEscan active-site-directed competition binding panel, 468 kinases, percent of DMSO control at 1 uM
Conditions in all cases: KINOMEscan binding, percent of DMSO control; read-out: Ctrl%
EPHA6 = EPHA6 (Homo sapiens, UniProt Q9UF33)
PLK4 = PLK4 (Homo sapiens, UniProt O00444)
EPHA2 = EPHA2 (Homo sapiens, UniProt P29317)
CDKL2 = CDKL2 (Homo sapiens, UniProt Q92772)
PRP4 = target: T1, PRP4 (Homo sapiens, UniProt Q13523)
T1 construct: gene PRPF4B

[1] = target: T2, TYK2(JH2domain-pseudokinase) (Homo sapiens, UniProt P29597)
T2 construct: JH2domain-pseudokinase

YANK3 = target: T3, YANK3 (Homo sapiens, UniProt Q86UX6)
T3 construct: gene STK32C

CDK4-cyclinD1 = target: T4, CDK4-cyclinD1 (Homo sapiens, UniProt P11802)
T4 construct: cyclinD1

EGFR = EGFR (Homo sapiens, UniProt P00533)
FGFR1 = FGFR1 (Homo sapiens, UniProt P11362)
FGFR2 = FGFR2 (Homo sapiens, UniProt P21802)
EPHA5 = EPHA5 (Homo sapiens, UniProt P54756)
NEK11 = NEK11 (Homo sapiens, UniProt Q8NG66)
FER = FER (Homo sapiens, UniProt P16591)
WNK1 = WNK1 (Homo sapiens, UniProt Q9H4A3)
DMPK = DMPK (Homo sapiens, UniProt Q09013)
PCTK3 = target: T5, PCTK3 (Homo sapiens, UniProt Q07002)
T5 construct: gene CDK18

EGFR(E746-A750del) = EGFR(E746-A750del) (Homo sapiens, UniProt P00533, DEL746-750)
FLT3(R834Q) = FLT3(R834Q) (Homo sapiens, UniProt P36888, R834Q)
[2] = target: T6, RSK1(Kin.Dom.2-C-terminal) (Homo sapiens, UniProt Q15418)
T6 construct: gene RPS6KA1; Kin.Dom.2-C-terminal

CAMK1D = CAMK1D (Homo sapiens, UniProt Q8IU85)
TNK2 = TNK2 (Homo sapiens, UniProt Q07912)
SNARK = target: T7, SNARK (Homo sapiens, UniProt Q9H093)
T7 construct: gene NUAK2

PRKCQ = PRKCQ (Homo sapiens, UniProt Q04759)

CDKL2, sequence (Q92772 whole entry): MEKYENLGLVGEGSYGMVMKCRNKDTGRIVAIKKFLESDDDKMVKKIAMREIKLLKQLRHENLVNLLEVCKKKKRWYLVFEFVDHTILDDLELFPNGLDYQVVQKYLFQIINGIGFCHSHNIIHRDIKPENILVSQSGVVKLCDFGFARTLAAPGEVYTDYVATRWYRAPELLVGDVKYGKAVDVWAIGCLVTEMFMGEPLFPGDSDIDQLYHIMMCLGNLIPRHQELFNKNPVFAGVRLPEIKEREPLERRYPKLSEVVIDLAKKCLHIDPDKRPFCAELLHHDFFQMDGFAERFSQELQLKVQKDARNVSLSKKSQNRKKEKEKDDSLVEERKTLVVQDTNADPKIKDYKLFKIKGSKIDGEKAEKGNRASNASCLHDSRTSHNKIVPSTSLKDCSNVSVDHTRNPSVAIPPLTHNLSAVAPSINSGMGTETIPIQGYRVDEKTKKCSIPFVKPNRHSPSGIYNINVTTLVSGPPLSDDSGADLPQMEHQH
EPHA2, sequence (P29317 whole entry): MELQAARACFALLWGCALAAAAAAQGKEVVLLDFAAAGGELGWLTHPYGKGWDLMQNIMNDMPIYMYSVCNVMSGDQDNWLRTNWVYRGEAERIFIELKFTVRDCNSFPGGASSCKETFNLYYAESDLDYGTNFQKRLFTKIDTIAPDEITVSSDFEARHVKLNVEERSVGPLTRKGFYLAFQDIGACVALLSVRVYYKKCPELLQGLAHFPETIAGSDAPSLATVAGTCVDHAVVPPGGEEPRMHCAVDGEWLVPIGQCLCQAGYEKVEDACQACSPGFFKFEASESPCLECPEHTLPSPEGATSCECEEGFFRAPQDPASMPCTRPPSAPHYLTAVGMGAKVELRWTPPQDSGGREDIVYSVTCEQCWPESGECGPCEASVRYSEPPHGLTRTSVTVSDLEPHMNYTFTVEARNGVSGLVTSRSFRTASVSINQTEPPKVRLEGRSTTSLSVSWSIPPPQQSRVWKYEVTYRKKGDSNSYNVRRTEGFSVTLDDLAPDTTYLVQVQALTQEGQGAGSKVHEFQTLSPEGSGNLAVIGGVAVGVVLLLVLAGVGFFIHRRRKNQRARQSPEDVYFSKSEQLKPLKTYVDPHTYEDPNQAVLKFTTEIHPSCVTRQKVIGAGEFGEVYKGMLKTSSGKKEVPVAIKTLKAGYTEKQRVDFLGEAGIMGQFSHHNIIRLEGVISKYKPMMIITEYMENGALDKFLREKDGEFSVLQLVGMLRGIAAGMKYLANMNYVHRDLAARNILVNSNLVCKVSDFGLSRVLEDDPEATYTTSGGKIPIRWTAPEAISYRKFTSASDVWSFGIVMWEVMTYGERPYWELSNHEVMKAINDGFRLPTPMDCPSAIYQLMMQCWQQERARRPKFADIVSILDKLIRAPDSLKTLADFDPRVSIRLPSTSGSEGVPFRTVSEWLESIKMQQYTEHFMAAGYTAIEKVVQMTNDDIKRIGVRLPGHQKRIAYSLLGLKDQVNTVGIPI
WNK1, sequence (Q9H4A3 whole entry): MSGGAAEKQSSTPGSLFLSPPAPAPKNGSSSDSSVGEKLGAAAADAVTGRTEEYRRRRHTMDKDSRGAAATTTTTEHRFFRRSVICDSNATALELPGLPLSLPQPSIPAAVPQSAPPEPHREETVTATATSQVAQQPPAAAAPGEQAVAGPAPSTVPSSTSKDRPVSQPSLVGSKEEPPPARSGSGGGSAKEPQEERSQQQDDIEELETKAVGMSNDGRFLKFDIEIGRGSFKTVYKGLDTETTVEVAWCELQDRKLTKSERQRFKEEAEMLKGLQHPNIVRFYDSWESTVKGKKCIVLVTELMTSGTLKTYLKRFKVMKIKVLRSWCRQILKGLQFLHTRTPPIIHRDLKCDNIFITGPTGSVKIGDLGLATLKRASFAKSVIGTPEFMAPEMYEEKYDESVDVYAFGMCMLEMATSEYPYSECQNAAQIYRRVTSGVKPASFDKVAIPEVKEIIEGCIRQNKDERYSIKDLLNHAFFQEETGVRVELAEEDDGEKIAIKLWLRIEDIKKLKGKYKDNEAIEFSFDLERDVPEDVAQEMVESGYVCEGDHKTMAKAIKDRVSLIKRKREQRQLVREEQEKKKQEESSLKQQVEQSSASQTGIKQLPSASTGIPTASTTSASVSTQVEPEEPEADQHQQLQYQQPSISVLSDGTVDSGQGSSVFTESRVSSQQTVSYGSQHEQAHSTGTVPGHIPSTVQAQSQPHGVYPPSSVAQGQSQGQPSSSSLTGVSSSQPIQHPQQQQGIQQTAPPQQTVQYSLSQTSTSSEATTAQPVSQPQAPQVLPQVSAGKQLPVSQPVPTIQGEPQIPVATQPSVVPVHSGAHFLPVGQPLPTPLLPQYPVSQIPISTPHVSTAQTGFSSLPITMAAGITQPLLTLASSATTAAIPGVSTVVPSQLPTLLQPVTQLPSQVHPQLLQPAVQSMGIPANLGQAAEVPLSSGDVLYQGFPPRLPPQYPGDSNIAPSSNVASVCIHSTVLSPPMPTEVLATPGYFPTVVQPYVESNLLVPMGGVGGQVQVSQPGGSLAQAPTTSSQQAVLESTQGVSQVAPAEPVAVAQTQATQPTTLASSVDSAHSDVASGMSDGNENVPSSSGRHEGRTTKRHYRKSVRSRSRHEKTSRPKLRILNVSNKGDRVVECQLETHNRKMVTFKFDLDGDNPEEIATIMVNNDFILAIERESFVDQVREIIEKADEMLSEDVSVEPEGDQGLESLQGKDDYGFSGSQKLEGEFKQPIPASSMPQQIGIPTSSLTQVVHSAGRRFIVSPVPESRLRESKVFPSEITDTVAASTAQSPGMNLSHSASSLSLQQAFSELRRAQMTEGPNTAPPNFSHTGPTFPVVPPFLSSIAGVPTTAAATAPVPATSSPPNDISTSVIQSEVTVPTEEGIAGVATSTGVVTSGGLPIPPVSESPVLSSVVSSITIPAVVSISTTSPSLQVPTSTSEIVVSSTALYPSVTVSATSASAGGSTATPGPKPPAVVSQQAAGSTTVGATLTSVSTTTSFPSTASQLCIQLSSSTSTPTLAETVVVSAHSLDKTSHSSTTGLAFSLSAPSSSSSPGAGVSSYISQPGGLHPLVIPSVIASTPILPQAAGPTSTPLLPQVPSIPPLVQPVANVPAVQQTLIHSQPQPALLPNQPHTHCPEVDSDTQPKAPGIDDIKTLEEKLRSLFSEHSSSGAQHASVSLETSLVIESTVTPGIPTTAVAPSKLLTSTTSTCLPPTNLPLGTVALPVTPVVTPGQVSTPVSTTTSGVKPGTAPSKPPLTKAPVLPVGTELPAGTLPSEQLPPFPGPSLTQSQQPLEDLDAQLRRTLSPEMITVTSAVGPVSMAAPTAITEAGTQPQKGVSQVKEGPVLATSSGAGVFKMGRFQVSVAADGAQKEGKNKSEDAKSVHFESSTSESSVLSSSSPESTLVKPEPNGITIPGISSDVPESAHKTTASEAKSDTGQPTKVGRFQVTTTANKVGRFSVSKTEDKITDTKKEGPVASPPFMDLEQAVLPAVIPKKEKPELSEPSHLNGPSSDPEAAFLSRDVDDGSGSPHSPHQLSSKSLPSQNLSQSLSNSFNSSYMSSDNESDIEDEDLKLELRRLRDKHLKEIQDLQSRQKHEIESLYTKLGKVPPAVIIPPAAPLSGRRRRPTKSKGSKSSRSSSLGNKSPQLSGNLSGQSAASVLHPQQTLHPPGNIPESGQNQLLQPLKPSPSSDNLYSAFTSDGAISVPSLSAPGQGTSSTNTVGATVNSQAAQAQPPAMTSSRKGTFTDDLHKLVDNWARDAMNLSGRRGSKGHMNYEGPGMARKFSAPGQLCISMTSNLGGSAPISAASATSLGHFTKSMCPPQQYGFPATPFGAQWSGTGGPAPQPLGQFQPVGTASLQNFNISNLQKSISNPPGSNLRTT
DMPK, sequence (Q09013 whole entry): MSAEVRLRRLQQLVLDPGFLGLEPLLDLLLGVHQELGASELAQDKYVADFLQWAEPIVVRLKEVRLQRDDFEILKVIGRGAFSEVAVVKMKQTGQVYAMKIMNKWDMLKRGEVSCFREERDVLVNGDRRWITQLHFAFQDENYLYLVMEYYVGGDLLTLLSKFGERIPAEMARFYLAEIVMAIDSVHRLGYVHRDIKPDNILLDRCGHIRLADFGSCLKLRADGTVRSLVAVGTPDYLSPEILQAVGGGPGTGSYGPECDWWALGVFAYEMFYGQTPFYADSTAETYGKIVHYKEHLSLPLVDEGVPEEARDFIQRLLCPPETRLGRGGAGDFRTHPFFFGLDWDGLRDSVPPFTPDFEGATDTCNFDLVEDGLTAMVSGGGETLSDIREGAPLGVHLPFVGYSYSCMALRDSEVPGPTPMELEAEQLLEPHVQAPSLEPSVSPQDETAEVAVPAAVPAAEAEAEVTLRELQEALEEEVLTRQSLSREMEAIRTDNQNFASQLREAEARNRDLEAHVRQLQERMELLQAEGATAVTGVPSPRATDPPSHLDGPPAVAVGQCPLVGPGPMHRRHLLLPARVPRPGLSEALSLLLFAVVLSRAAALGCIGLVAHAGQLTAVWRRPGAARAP
T7 sequence (Q9H093 whole entry): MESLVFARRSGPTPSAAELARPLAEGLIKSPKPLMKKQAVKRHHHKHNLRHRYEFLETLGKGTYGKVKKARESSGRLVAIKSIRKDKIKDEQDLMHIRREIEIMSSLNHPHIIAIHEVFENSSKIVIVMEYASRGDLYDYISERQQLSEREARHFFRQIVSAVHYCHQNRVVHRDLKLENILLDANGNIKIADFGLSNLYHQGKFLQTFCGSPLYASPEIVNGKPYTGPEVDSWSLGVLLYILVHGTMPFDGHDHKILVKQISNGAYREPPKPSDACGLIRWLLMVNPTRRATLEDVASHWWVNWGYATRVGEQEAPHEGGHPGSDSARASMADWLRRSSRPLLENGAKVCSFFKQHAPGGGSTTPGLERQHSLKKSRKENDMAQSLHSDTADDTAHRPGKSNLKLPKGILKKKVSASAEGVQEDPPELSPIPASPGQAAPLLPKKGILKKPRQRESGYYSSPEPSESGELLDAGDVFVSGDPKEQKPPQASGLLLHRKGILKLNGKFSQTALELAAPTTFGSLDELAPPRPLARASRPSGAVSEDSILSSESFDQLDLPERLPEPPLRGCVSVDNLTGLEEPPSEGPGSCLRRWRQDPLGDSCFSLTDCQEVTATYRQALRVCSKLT

## Cc1ccc(NC(=O)c2cccc(C(F)(F)F)c2)cc1Nc1cc(-c2cccnc2)nc2[nH]ccc12 [HZX-02-059]
EPHA6
  remaining binding at 1 µM: 69%
PLK4
  remaining binding at 1 µM: 91%
EPHA2
  remaining binding at 1 µM: 4%
CDKL2
  remaining binding at 1 µM: 99%
PRP4
  remaining binding at 1 µM: 69%
[1]
  remaining binding at 1 µM: 92%
YANK3
  remaining binding at 1 µM: 81%
CDK4-cyclinD1
  remaining binding at 1 µM: 98%
EGFR
  remaining binding at 1 µM: 67%
FGFR1
  remaining binding at 1 µM: 93%
FGFR2
  remaining binding at 1 µM: 95%
EPHA5
  remaining binding at 1 µM: 17%
NEK11
  remaining binding at 1 µM: 100%
FER
  remaining binding at 1 µM: 77%
WNK1
  remaining binding at 1 µM: 98%
DMPK
  remaining binding at 1 µM: 81%
PCTK3
  remaining binding at 1 µM: 84%
EGFR(E746-A750del)
  remaining binding at 1 µM: 90%
FLT3(R834Q)
  remaining binding at 1 µM: 100%
[2]
  remaining binding at 1 µM: 100%
CAMK1D
  remaining binding at 1 µM: 100%
TNK2
  remaining binding at 1 µM: 98%
SNARK
  remaining binding at 1 µM: 99%
PRKCQ
  remaining binding at 1 µM: 88%
